Assays:
[1] = Cytotoxicity against human A549 cells assessed as cell growth inhibition after 48 hrs by MTT assay; assay type: functional, cell-based; conditions: A549, 48 h
[2] = Cytotoxicity against human PC3 cells assessed as cell growth inhibition after 48 hrs by MTT assay; assay type: functional, cell-based; conditions: PC-3, 48 h
[3] = Cytotoxicity against human DU145 cells assessed as cell growth inhibition after 48 hrs by MTT assay; assay type: functional, cell-based; conditions: DU-145, 48 h
[4] = Cytotoxicity against human MDA-MB-231 cells assessed as cell growth inhibition after 48 hrs by MTT assay; assay type: functional, cell-based; conditions: MDA-MB-231, 48 h
[5] = Cytotoxicity against human MCF10A cells assessed as cell growth inhibition after 48 hrs by MTT assay; assay type: toxicity, cell-based, MCF-10A
A549 = test: Selectivity index, ratio of IC50 for human MCF10A cells to IC50 for human A549 cells; assay type: functional

`CC(C)n1c(/C=C2\SC(=O)N(CC(=O)Nc3cc(C(C)(C)C)on3)C2=O)nc2ccccc21` showed an IC50 [1] greater than 50 µM, an IC50 [2] greater than 50 µM and an IC50 [3] greater than 50 µM. It also gave an IC50 [4] greater than 50 µM.
With `CCn1c(/C=C2\SC(=O)N(CC(=O)Nc3cc(C(C)(C)C)on3)C2=O)nc2ccccc21` the IC50 [1] was 44.8 µM, the IC50 [2] was greater than 50 µM and the IC50 [3] was greater than 50 µM. It also gave an IC50 [4] greater than 50 µM.
In the case of `CCn1c(/C=C2\SC(=O)N(CC(=O)N3CCCCC3)C2=O)nc2ccccc21`, the IC50 [1] is reported as greater than 50 µM, the IC50 [2] is reported as greater than 50 µM and the IC50 [3] is reported as greater than 50 µM. For the same molecule, the IC50 [4] was greater than 50 µM.
In the case of `CCn1c(/C=C2\SC(=O)N(CC(=O)Nc3nc(-c4ccccc4)cs3)C2=O)nc2ccccc21`, the IC50 [1] is reported as greater than 50 µM, the IC50 [2] is reported as greater than 50 µM and the IC50 [3] is reported as greater than 50 µM. For the same molecule, the IC50 [4] was greater than 50 µM.
In the case of `Cn1c(/C=C2\SC(=O)N(CC(=O)Nc3cc(C(C)(C)C)on3)C2=O)nc2ccccc21`, the IC50 at 48 h [5] is reported as 38.7 µM, the “Ratio IC50” value (A549) is reported as 2.5 and the IC50 [1] is reported as 15.3 µM. It also gave an IC50 [2] greater than 50 µM, an IC50 [3] of 31.4 µM and an IC50 [4] of 33.8 µM.
Work on `Cn1c(/C=C2\SC(=O)N(CC(=O)N3CCCC3)C2=O)nc2ccccc21` yielded an IC50 [1] greater than 50 µM, an IC50 [2] greater than 50 µM and an IC50 [3] greater than 50 µM. It also gave an IC50 [4] greater than 50 µM.
In the case of `CC(C)n1c(/C=C2\SC(=O)N(CC(=O)N3CCOCC3)C2=O)nc2ccccc21`, the IC50 [1] is reported as greater than 50 µM, the IC50 [2] is reported as greater than 50 µM and the IC50 [3] is reported as greater than 50 µM. It also gave an IC50 [4] greater than 50 µM.
`CC1CN(C(=O)CN2C(=O)S/C(=C\c3nc4ccccc4n3C(C)C)C2=O)CC(C)O1` (centres undefined) showed an IC50 [1] greater than 50 µM, an IC50 [2] greater than 50 µM and an IC50 [3] greater than 50 µM. The IC50 [4] was greater than 50 µM.
In the case of `CC1CN(C(=O)CN2C(=O)S/C(=C\c3nc4ccccc4n3C)C2=O)CC(C)O1` (centres undefined), the IC50 [1] is reported as 29.4 µM, the IC50 [2] is reported as greater than 50 µM and the IC50 [3] is reported as greater than 50 µM. The IC50 [4] was greater than 50 µM.
In the case of `CCn1c(/C=C2\SC(=O)N(CC(=O)N3CCOCC3)C2=O)nc2ccccc21`, the IC50 [1] is reported as greater than 50 µM, the IC50 [2] is reported as greater than 50 µM and the IC50 [3] is reported as greater than 50 µM. It also gave an IC50 [4] greater than 50 µM.
In the case of `CC(C)n1c(/C=C2\SC(=O)N(CC(=O)N3CCCCC3)C2=O)nc2ccccc21`, the IC50 [1] is reported as 28.2 µM, the IC50 [2] is reported as greater than 50 µM and the IC50 [3] is reported as 42.2 µM. The IC50 [4] was greater than 50 µM.
With `Cn1c(/C=C2\SC(=O)N(CC(=O)N3CCOCC3)C2=O)nc2ccccc21` the IC50 [1] was 38.5 µM, the IC50 [2] was greater than 50 µM and the IC50 [3] was 41.1 µM. For the same molecule, the IC50 [4] was greater than 50 µM.
`COc1cc2c(cc1OC)CN(C(=O)CN1C(=O)S/C(=C\c3nc4ccccc4n3C(C)C)C1=O)CC2` showed an IC50 at 48 h [5] greater than 100 µM, an IC50 [1] of 20.6 µM and an IC50 [2] greater than 50 µM. For the same molecule, the IC50 [3] was 29.7 µM and the IC50 [4] was 30.6 µM.
For `CCn1c(/C=C2\SC(=O)N(CC(=O)N3CCc4cc(OC)c(OC)cc4C3)C2=O)nc2ccccc21`, the IC50 [1] was 26.2 µM, the IC50 [2] was 33.5 µM and the IC50 [3] was greater than 50 µM. The IC50 [4] was greater than 50 µM.
`CC(C)n1c(/C=C2\SC(=O)N(CC(=O)N3CCCC3)C2=O)nc2ccccc21` showed an IC50 [1] greater than 50 µM, an IC50 [2] greater than 50 µM and an IC50 [3] greater than 50 µM. The IC50 [4] was greater than 50 µM.
Molecule `CCn1c(/C=C2\SC(=O)N(CC(=O)N3CCCC3)C2=O)nc2ccccc21` has an IC50 [1] of 31.2 µM, an IC50 [2] greater than 50 µM and an IC50 [3] of 45.1 µM. It also gave an IC50 [4] greater than 50 µM.
In the case of `CCn1c(/C=C2\SC(=O)N(CC(=O)N3CC(C)OC(C)C3)C2=O)nc2ccccc21` (centres undefined), the IC50 [1] is reported as greater than 50 µM, the IC50 [2] is reported as greater than 50 µM and the IC50 [3] is reported as greater than 50 µM. The IC50 [4] was greater than 50 µM.
Molecule `Cn1c(/C=C2\SC(=O)N(CC(=O)N3CCCCC3)C2=O)nc2ccccc21` has an IC50 [1] greater than 50 µM, an IC50 [2] greater than 50 µM and an IC50 [3] greater than 50 µM. The IC50 [4] was greater than 50 µM.
`COc1cc2c(cc1OC)CN(C(=O)CN1C(=O)S/C(=C\c3nc4ccccc4n3C)C1=O)CC2` gave an IC50 at 48 h [5] greater than 100 µM, an IC50 [1] of 13.3 µM and an IC50 [2] of 41.1 µM. It also gave an IC50 [3] of 37.5 µM and an IC50 [4] of 36 µM.
Work on `O=c1[nH]cc(F)c(=O)[nH]1` [FLUOROURACIL] yielded an IC50 [1] of 30.5 µM, an IC50 [2] of 45.3 µM and an IC50 [3] of 40.6 µM. The IC50 [4] was 36 µM.

Reference: ChEMBL document CHEMBL3875162, “Synthesis and biological evaluation of new benzimidazole-thiazolidinedione hybrids as potential cytotoxic and apoptosis inducing agents” (Eur J Med Chem, 2016)
